Data reported in patent publication US10471046B2, “Method for treating, preventing, or reducing the risk of skin infection” (Melinta Subsidiary Corp., priority 2014, dated 2019).
In brackets after ≈: the same amount, converted by molar mass. Read-outs that look alike come from different tables or passages of the source.

Key:
[1] = system: Enterococcus faecium; test: MIC against ribosome-based resistance phenotypes; assay type: cell-based; details: Enterococcus faecium A6349; VanA + Lin-R (G2576U); read-out: Minimum Inhibitory Concentration (MIC)
Description: (§1) Furthermore, the antibiotic compounds can be assayed for anti-proliferative or anti-infective properties on a cellular level. For example, where the target organism is a microorganism, the activity of compounds of interest can be assayed by growing the microorganisms of interest in media either containing or lacking the compound. Growth inhibition can be indicative that the molecule could be acting as a protein synthesis inhibitor. […] For this purpose, a panel of bacterial strains can be assembled to include a variety of target pathogenic species, some containing resistance mechanisms that have been characterized. Use of such a panel of organisms permits the determination of structure-activity relationships not only in regards to potency and spectrum, but also with a view to obviating resistance mechanisms. The assays can be performed in microtiter trays according to conventional methodologies as published by The National Committee for Clinical Laboratory Standards (NCCLS) guidelines (NCCLS. M7-A5-Methods for Dilution Antimicrobial Susceptibility Tests for Bacteria That Grow Aerobically; Approved Standard-Fifth Edition. NCCLS Document M100-S12/M7 (ISBN 1-56238-394-9)).

[2] = system: P. granulosum; test: Broth microdilution MIC; assay type: cell-based; details: P. granulosum ATCC 25746
[3] = system: G. vaginalis; test: Broth microdilution MIC; assay type: cell-based; details: Gardnerella vaginalis
[4] = system: P. acnes; test: Agar dilution MIC (CLSI reference method); assay type: cell-based; details: Cutibacterium acnes
[5] = system: G. vaginalis; test: Agar dilution MIC (CLSI reference method); assay type: cell-based; details: Gardnerella vaginalis
[6] = system: B. fragilis; test: Broth microdilution MIC; assay type: cell-based; details: Bacteroides fragilis, ATCC25285; B. fragilis ATCC 25285
[7] = system: F. magna; test: Agar dilution MIC (CLSI reference method); assay type: cell-based; details: Finegoldia magna, ATCC15794; F. magna ATCC 15794
[8] = system: F. magna; test: Broth microdilution MIC; assay type: cell-based; details: Finegoldia magna, ATCC15794; F. magna ATCC 15794
[9] = system: S. aureus; test: Agar dilution MIC (CLSI reference method); assay type: cell-based; details: Staphylococcus aureus, ATCC29213; S. aureus ATCC 29213
Protocol: Susceptibility testing was performed by the agar dilution reference method (radezolid, linezolid, and clindamycin) and broth microdilution method (all agents) as described by the Clinical and Laboratory Standards Institute (CLSI).
For the agar dilution method, Brucella agar (BBL, 211086) was prepared according to the manufacturer's instructions and cooled to 48-50° C. in a water bath. Once the agar was cooled, it was supplemented with 10 mL of hemin+vitamin K1 Solution (Remel, R450951), 1 mL of 1 mg/mL vitamin K1 working solution (Sigma, V3501), and 50 mL laked sheep blood (Remel, R54004). The media was dispensed into 50 mL centrifuge tubes and held at 48-50° C. […] The diluted antimicrobial agents were added to the dispensed media, gently mixed, and poured into sterile petri dishes. Once hardened, the plates were held in anaerobic jars at room temperature and used the following day. […]
On the day of testing, a 0.5 McFarland equivalent of each isolate was prepared in Brucella broth with hemin+vitamin K1. […] BRU plates and those containing compound were incubated at 35° C. in an anaerobic environment for 24 hours, read, and re-incubated for an additional 24 hours followed by a final reading. […] Following incubation, MICs were determined as the lowest concentration showing a marked reduction in growth or no growth compared to the growth control plate.

[10] = system: P. granulosum; test: Agar dilution MIC (CLSI reference method); assay type: cell-based; details: P. granulosum ATCC 25746
[11] = system: Enterococcus faecalis; test: MIC against ribosome-based resistance phenotypes; assay type: cell-based; details: read-out: Minimum Inhibitory Concentration (MIC)
Description: as §1, with “mechanisms.” for “mechanisms. The assays can be performed in microtiter trays according to conventional methodologies as published by The National Committee for Clinical Laboratory Standards (NCCLS) guidelines (NCCLS. M7-A5-Methods for Dilution Antimicrobial Susceptibility Tests for Bacteria That Grow Aerobically; Approved Standard-Fifth Edition. NCCLS Document M100-S12/M7 (ISBN 1-56238-394-9)).”

[12] = system: Staphylococcus aureus; test: MIC against ribosome-based resistance phenotypes; assay type: cell-based; details: read-out: Minimum Inhibitory Concentration (MIC)
Description: as §1, with “mechanisms.” for “mechanisms. The assays can be performed in microtiter trays according to conventional methodologies as published by The National Committee for Clinical Laboratory Standards (NCCLS) guidelines (NCCLS. M7-A5-Methods for Dilution Antimicrobial Susceptibility Tests for Bacteria That Grow Aerobically; Approved Standard-Fifth Edition. NCCLS Document M100-S12/M7 (ISBN 1-56238-394-9)).”

[13] = Long-term rat safety study; assay type: in vivo; details: rat, in vivo, 100 mg/kg/day
Description: There was 100% survival in all dose groups.

[14] = in vivo
[15] = system: caco-2
[16] = system: B. thetaiotaomicron; test: microbe, parasite or virus in culture; assay type: cell-based; details: for MIC: Bacteroides thetaiotaomicron, ATCC29741, read-out: MIC, broth microdilution
[17] = system: S. aureus; test: Broth microdilution MIC; assay type: cell-based; details: for MIC: Staphylococcus aureus, ATCC29213, S. aureus ATCC 29213
[18] = system: B. fragilis; test: Agar dilution MIC (CLSI reference method); assay type: cell-based; details: Bacteroides fragilis, ATCC25285; B. fragilis ATCC 25285
[19] = ATCC14018, G. vaginalis ATCC 14018
[20] = ATCC49145, G. vaginalis ATCC 49145
[21] = ATCC29212, Enterococcus faecalis ATCC29212-P5, Lin-R (G2576U)

For CC(=O)NC[C@H]1CN(c2ccc(N3CCOCC3)c(F)c2)C(=O)O1 [Linezolid, linezolid], the MIC [1] was 16 µg/mL, the MIC [2] was 1 µg/mL (≈ 2.96 µM) and the MIC [3, 19] was 0.5 µg/mL (≈ 1.48 µM). It also gave an MIC [3, 20] of 0.5 µg/mL (≈ 1.48 µM), an MIC ([4]; ATCC11827, P. acnes ATCC 11827) of 0.5 µg/mL (≈ 1.48 µM) and an MIC ([4]; ATCC11828, P. acnes ATCC 11828) of 0.5 µg/mL (≈ 1.48 µM). It also gave an MIC ([4]; ATCC29399, P. acnes ATCC 29399) of 0.5 µg/mL (≈ 1.48 µM), an MIC [5, 19] of 0.5 µg/mL (≈ 1.48 µM) and an MIC [5, 20] of 0.5 µg/mL (≈ 1.48 µM). The MIC [6] was 2 µg/mL (≈ 5.93 µM), the MIC [7] was 2 µg/mL (≈ 5.93 µM) and the MIC [8] was 1 µg/mL (≈ 2.96 µM). The MIC [9] was 2 µg/mL (≈ 5.93 µM), the MIC [10] was 2 µg/mL (≈ 5.93 µM) and the MIC [11, 21] was 32 µg/mL (≈ 94.9 µM). For the same molecule, the MIC ([12]; Staphylococcus aureus A7820, Lin-R (G2576U) + Mac-R (ErmC)) was 64 µg/mL, the “cellularity of sternal and femoral bone marrow” value [13] was “decreased cellularity of sternal and femoral bone marrow” and the “red cell mass, absolute reticulocyte and neutrophil counts” value [13] was “decreased red cell mass, absolute reticulocyte and neutrophil counts”.

For CC(=O)NC[C@H]1CN(c2ccc(-c3ccc(CNCc4cnn[nH]4)cc3)c(F)c2)C(=O)O1.Cl [model compound], the “solubility of salt in water” value (pH 4) was 2600 µg/mL, the “solubility of salt in water” value (pH 5.4) was 200 µg/mL and the “solubility of salt in water” value (pH 6.5) was 60 µg/mL. For the same molecule, the intrinsic solubility (pH 6.8) was 10 µg/mL, the positive food effect [14] was 4 × and the caco-2 permeability [15] was 0.5 ×10⁻⁶ cm/s.

Work on CC[C@H]1OC(=O)[C@H](C)[C@@H](O[C@H]2C[C@@](C)(OC)[C@@H](O)[C@H](C)O2)[C@H](C)[C@@H](O[C@@H]2O[C@H](C)C[C@H](N(C)C)[C@H]2O)[C@](C)(O)C[C@@H](C)CN(C)[C@H](C)[C@@H](O)[C@]1(C)O [Azithromycin, azithromycin] yielded an MIC ([11]; ATCC29212, Enterococcus faecalis ATCC29212, phenotype QC) of 8 µg/mL (≈ 10.7 µM), an MIC [11, 21] of 8 µg/mL (≈ 10.7 µM) and an MIC [11] of 128 µg/mL (≈ 171 µM). It also gave an MIC ([12]; ATCC29213, Staphylococcus aureus ATCC29213, phenotype QC) of 1 µg/mL (≈ 1.34 µM).

For C[C@H]1c2cccc(O)c2C(=O)C2=C(O)[C@]3(O)C(=O)C(C(N)=O)=C(O)[C@@H](N(C)C)[C@@H]3[C@@H](O)[C@@H]21 [DOX, doxycycline], the “MIC difference relative to radezolid MIC” value ([16]; B. thetaiotaomicron, doxycycline: more potent than radezolid) was 4 fold, the MIC [16] was 2 µg/mL (≈ 4.5 µM) and the MIC [2] was 0.25 µg/mL (≈ 0.563 µM). For the same molecule, the MIC [3, 19] was 0.5 µg/mL (≈ 1.13 µM), the MIC [3, 20] was 32 µg/mL (≈ 72 µM) and the “MIC difference relative to radezolid MIC” value ([17]; S. aureus, doxycycline and clindamycin: MICs lower than radezolid) was 4 fold. It also gave an MIC [17] of 0.5 µg/mL (≈ 1.13 µM), an MIC [6] of no more than 0.06 µg/mL and an MIC [8] of 0.125 µg/mL (≈ 0.281 µM).

CCC[C@@H]1C[C@@H](C(=O)N[C@@H]([C@H]2O[C@H](SC)[C@H](O)[C@@H](O)[C@H]2O)[C@H](C)Cl)N(C)C1 [Clindamycin, clindamycin] showed an MIC [2] of 1 µg/mL (≈ 2.35 µM), an MIC [3, 19] of 0.125 µg/mL (≈ 0.294 µM) and an MIC [3, 20] of no more than 0.06 µg/mL. For the same molecule, the MIC ([4]; ATCC11827, P. acnes ATCC 11827) was no more than 0.06 µg/mL, the MIC ([4]; ATCC11828, P. acnes ATCC 11828) was 0.125 µg/mL (≈ 0.294 µM) and the MIC ([4]; ATCC29399, P. acnes ATCC 29399) was no more than 0.06 µg/mL. It also gave an MIC [17] of 0.25 µg/mL (≈ 0.588 µM), an MIC [18] of 2 µg/mL (≈ 4.71 µM) and an MIC [5, 19] of 0.25 µg/mL (≈ 0.588 µM). For the same molecule, the MIC [5, 20] was 0.125 µg/mL (≈ 0.294 µM), the MIC [6] was 1 µg/mL (≈ 2.35 µM) and the MIC [7] was 1 µg/mL (≈ 2.35 µM). It also gave an MIC [8] of 0.5 µg/mL (≈ 1.18 µM) and an MIC [10] of 1 µg/mL (≈ 2.35 µM).

In the case of CN(C)[C@@H]1C(O)=C(C(N)=O)C(=O)[C@@]2(O)C(O)=C3C(=O)c4c(O)cccc4[C@@](C)(O)[C@H]3C[C@@H]12 [TET, tetracycline], the MIC [16] is reported as 8 µg/mL (≈ 18 µM), the MIC [2] is reported as 0.25 µg/mL (≈ 0.563 µM) and the MIC [3, 19] is reported as 0.5 µg/mL (≈ 1.13 µM). For the same molecule, the MIC [3, 20] was greater than 32 µg/mL, the MIC [17] was 1 µg/mL (≈ 2.25 µM) and the MIC [6] was 0.25 µg/mL (≈ 0.563 µM). For the same molecule, the MIC [8] was 0.25 µg/mL (≈ 0.563 µM).

With Cc1ncc([N+](=O)[O-])n1CCO [MET, metronidazole] the MIC [16] was 4 µg/mL (≈ 23.4 µM), the MIC [2] was 1 µg/mL (≈ 5.84 µM) and the MIC [3, 19] was 8 µg/mL (≈ 46.7 µM). It also gave an MIC [3, 20] of 4 µg/mL (≈ 23.4 µM), an MIC [17] greater than 32 µg/mL and an MIC [6] of 0.5 µg/mL (≈ 2.92 µM). It also gave an MIC [8] of 0.125 µg/mL (≈ 0.73 µM).
